Data published in patent publication US12427143B2, “Pharmaceutical composition for treating or preventing aging or age-related diseases” (INU RESEARCH & BUSINESS FOUNDATION, priority 2021, dated 2025).
Changes are numbered by the printed parent chain.

Assays:
[1] = tested on: senescent HDF; experiment: Mitochondrial ROS by MitoSOX flow cytometry; format: cell-based, human; conditions: versus senescent HDF
Method: (§1) FIG. 5 depicts the result of recovery of mitochondria based on the increased production of ATP. (A and B) Flow cytometric analysis of mitochondrial ROS and mitochondrial mass analysis using Mito tracker Green and MitoSOX; (C and D) measurement of non-glycotic glycolysis level and glycotic glycolysis level; (E) flow cytometry analysis of autophagosome level using CYTO-ID Green assay.
(§2) For quantification of mitochondrial ROS, the cells were incubated in medium containing 5 μM MitoSOX (M36008; Life Technologies, Carlsbad, CA, USA) for 30 min at 37° C. For quantification of mitochondrial mass, the cells were incubated in medium containing 50 nM MitoTracker green (M22426; Life Technologies) for 30 min at 37° C. After staining, for the purpose of measuring mitochondrial membrane potential, cells were prepared for FACS analysis.
Reactive oxygen species (ROS) was identified and measured, which damages homeostasis and metabolism of normal mitochondria.

[2] = tested on: senescent HDF cells; experiment: Compound screening: cell proliferation of senescent fibroblasts (GelGreen fluorescence); format: cell-based, human; conditions: 27 drugs at 4 μM, 12 days, senescent HDF 1,000 cells per well
Method: FIG. 1 depicts the results of potential target screening for recovering senescence. Each of compounds was treated to a 96 well plate seeded with 1000 senescent cells (4 μM). After incubation for 12 days, the cells were stained with Gel green solution (1:1,000 in D.W.). Cell number was determined via fluorescence measurement using fluorescence microplate reader (excitation/emission 485 nm/535 nm).
Senescent fibroblasts were grown in 96-well plates at a density of 1,000 cells per well. Components from the library were diluted to a final concentration of 4 μM and added to the wells every 4 days. 12 days after drug treatment, cells were washed twice with phosphate-buffered saline (PBS) and lysed in 50 μl of 0.2% SDS. The plates were incubated at 37° C. for 1 h. GelGreen® Nucleic Acid Gel Stain (150 μl) (1:1,000 in DW; 41005; Biotium, Fremont, CA, USA) was added to the wells. Cell number was determined by measuring fluorescence intensity with VICTOR Multilabel Plate Reader (2030-0050; PerkinElmer, Waltham, MA, USA). The mean and standard deviation from six replicates were determined for each of experimental groups.
Cellular senescence is characterized by cell cycle arrest, and the inventors identified a compound recovering cell cycle arrest with additional anti-senescence effects. […] Relative cell proliferation was measured in terms of the senescent HDF. […]

[3] = tested on: senescent HDF mitochondria; experiment: Transmission electron microscopy of mitochondrial cristae; format: cell-based, human
Source text: FIG. 6 depicts the result of mitochondria recovery induced by KB1541. (A) HDF mitochondria observed in transmission electron microscope 21 days after treated with KB1541. From left: Senescent (DMSO), Senescent (KB1541); (B) the length of cristae observed in transmission electron microscope.
The inventors studied level to cristae of mitochondria 12 days after senescent HDF treatment and identified senescence recovery. […] In graph where the images were quantified and represented, the length of cristae increased when treated with KB1541(FIG. 6B).

[4] = target: T1, Myc-14-3-3 zeta/delta(WT) / ATP synthase alpha and beta (Homo sapiens, UniProt P63104); experiment: Co-immunoprecipitation of ATP synthase alpha and beta with Myc-14-3-3 zeta/delta(WT); format: cell-based; conditions: HEK293T, 4 μM
T1 construct: expressed in transfected cells; host or cells: HEK293T (CRL-11268; ATCC)
T1 sequence (P63104 1-245): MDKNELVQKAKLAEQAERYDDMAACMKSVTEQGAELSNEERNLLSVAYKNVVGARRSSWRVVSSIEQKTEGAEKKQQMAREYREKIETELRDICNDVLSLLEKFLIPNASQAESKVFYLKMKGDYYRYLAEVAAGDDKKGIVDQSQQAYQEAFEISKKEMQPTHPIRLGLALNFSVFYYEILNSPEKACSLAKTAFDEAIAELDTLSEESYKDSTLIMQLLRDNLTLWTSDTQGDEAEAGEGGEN
Method: (§3) pCMV-Myc-14-3-3 zeta/delta(WT) plasmid and pCMV-Myc-14-3-3 zeta/delta(S58A) plasmid were transfected with HEK293T(CRL-11268; ATCC). […] The treated cells were digested with 0.1% NP-40 cell lysis buffer to destroy cells, and IP (immunoprecipitation) of MIC60 subunit was performed using AccuNanoBeadm Streptavidin Magnetic Nanobeads (TA-1015-1; Bioneer, Daejeon, Korea). IP of 14-3-3 zeta/delta(WT) and 14-3-3 zeta/delta(S58A) were performed using anti-Myc tag antibody.
(§4) The PCR fragment of 14-3-3 zeta/delta (WT) and 14-3-3 zeta/delta (S58A) were separately cloned into pCMV-Myc-puromycin. HEK293T (CRL-11268; ATCC) were transfected with Lipofectaminem 2000 Transfection Reagent (11668-019; Thermo Scientific), Selection was carried out with puromycin 3 μg/ml.
(§5) Therefore, the 58th serine region of 14-3-3 zeta/delta was mutated to alanine to investigate its function. Myc-tag 14-3-3 zeta/delta(WT) vector and 14-3-3 zeta/delta(S58A) vector were transfected and overexpressed with HEK293T. Additionally, their interactions with endogenous ATP synthase alpha and beta were confirmed by IP (FIG. 4B).
(§6) As a result, ATP synthase alpha and beta proteins, which interacted with Myc-14-3-3 zeta/delta(WT) were increased KB1541 was treated to HEK293T at a concentration of 4 μM (FIG. 5B).

[5] = tested on: senescent HDF; experiment: Autophagy level (Cyto-ID flow cytometry); format: cell-based, human; conditions: HDF treated with compound
Method: as §1
Cells were incubated in medium containing 20 μM chloroquine (CQ; C6628, Sigma-Aldrich). At 24 h after incubation, cells were further stained with Cyto-ID staining solution and 50 nM LTDR (ENZ-51031-0050; ENZO, Lausen, Switzeland) for 30 min and prepared for FACS analysis. To measure background autofluorescence, cells were incubated in medium without dye. Fluorescence from Cyto-ID was normalized with fluorescence from LTDR. Autophagic flux was calculated using the following equation: ΔMFI Cyto-ID=MFI Cyto-ID (+CQ)/MFI Cyto-ID (−CQ).
(§7) The capability of removing organelles having dysfunction in senescent cells is deteriorated. Recovery of autophagy prevents accumulation of dysfunctional mitochondria and resulting in signs of senescence recovery. Mitochondrial mass and autophagy were measured for identifying the function. Mitochondrial mass decreased in HDF treated with KB1541(FIG. 5B). Moreover, autophagy level increased in HDF treated with KB1541(FIG. 5C).

[6] = tested on: senescent HDF; experiment: Mitochondrial mass by MitoTracker green flow cytometry; format: cell-based, human; conditions: HDF treated with compound
Method: as §1, §2, §7

[7] = target: T2, Myc-14-3-3 zeta/delta (S58A) / ATP synthase alpha and beta (Homo sapiens, UniProt P63104, S58A); experiment: Co-immunoprecipitation of ATP synthase alpha and beta with Myc-14-3-3 zeta/delta(S58A); format: cell-based; conditions: HEK293T, performed in the same way (4 μM)
T2 construct: expressed in transfected cells; host or cells: HEK293T (CRL-11268; ATCC)
T2 sequence (P63104 1-245 S58A): T1 sequence (P63104 1-245) with S58A
Method: as §3, §4, §5, §6

[8] = tested on: senescent HDF; experiment: Seahorse analysis, ECAR (dependency of glycolysis); format: cell-based, human; conditions: HDF treated with compound, regardless of glucose
Source text: as §1
The XFe24 flux analyzer (Seahorse Bioscience XFe24 Instrument) was used according to the manufacturer's protocol. Briefly, 5×10^4 cells were distributed into each well of an XFe24 cell-culture plate from the XF24 FluxPak (100850-001; Seahorse Bioscience, North Billerica, MA, USA) and then cultured in a 5% CO2 incubator at a temperature of 37° C. for 16 h. Next, the medium was replaced by XF Assay medium (102365-100; Seahorse Bioscience), which lacked glucose, and the cells were then cultured for another 1 h in the same incubator. The extracellular acidification rate (ECAR) was measured using an XF Glycolysis Stress Test kit (102194-100; Seahorse Bioscience). ECAR was reported in mpH/min. As a metabolic shifter, aconitase inhibitor deferiprone (379409-5G; Sigma-Aldrich) was used.
Lastly, dependency of glycolysis was measured via ECAR.
Dependency of glycolysis in HDF treated with KB1541 decreased regardless of glucose like ATP study (FIGS. 5D and E).

[9] = tested on: senescent HDF; experiment: Measurement of cellular ATP levels (oxphos and glycolysis portion); format: cell-based, human; conditions: versus senescent HDF
Method: Cells were incubated in medium with or without 20 μM oligomycin for 24 h and then lysed with lysis buffer. ATP content was measured using a ViaLight Plus Kit (LT07-221; Lonza, Basel, Switzerland) according to the manufacturer's instructions. DNA content was measured using AccuBlue broad range dsDNA quantitation kit (31007; Biotium, Fremont, CA, USA). For measurements of relative ATP content, the luminescence of each sample was normalized to the DNA content.
The inventors studied the changes in ATP production when assembling the ATP subunit based on the result of FIG. 4B. Oxphos portion was measured for identifying ATP resulting from oxidative phosphorylation in mitochondria cristae (FIG. 4C).
Moreover, glycolysis portion was measured for assessing the amount of ATP during glycolysis (FIG. 4D).

## FC(F)(F)c1ccc(-c2nc3c(N4CCCC4)nc4ccccc4c3o2)cc1 [KB1541]
[1]
  Reactive oxygen species (mitochondrial ROS): decreased in half
[2]
  Relative cell proliferation, rank among screened compounds: most effective compound on cell proliferation
[3]; 12 days after treatment
  Folds (cristae) of mitochondria in electron microscope images: restored as well as increased
[3]; quantified TEM images
  Length of cristae: increased
[4]
  ATP synthase alpha and beta proteins interacting with Myc-14-3-3 zeta/delta(WT): increased
[5]
  Autophagy level: increased
[6]
  Mitochondrial mass: decreased
[7]
  ATP synthase alpha and beta proteins interacting with Myc-14-3-3 zeta/delta (S58A): did not change significantly
[8]
  Dependency of glycolysis (ECAR): decreased
[9]
  Glycolysis portion of ATP production: reduced compared to senescent HDF
  Oxphos portion of ATP production: higher than senescent HDF
